In patent US20230270713A1, “Administration of Resiniferatoxin For Treatment of Bladder Pain or Bladder Cancer” (Sorrento Therapeutics, Inc., priority 2020, published 2023):

What was measured:
[1] = tested on: cats with FIC (Feline Idiopathic Cystitis); experiment: VSOM in cats with Feline Idiopathic Cystitis; assay type: in vivo, cat; details: for VSOM treatment failure, number of cats / VSOM treatment failure, percent of cats: Day 28 vs Day 0
[2] = tested on: CGRP and SP afferent nerve fibers (TRPV1 axons) innervating the cat bladder; experiment: Density of CGRP and SP afferent nerve fibers in cat bladder (IHC, confocal); assay type: in vivo
Experimental: To examine the effect of intravesical instillation of RTX on the bladder, 6 healthy cats, between the 2-5 years of age, were treated with either 5 (low dose), 25 (mid dose) or 50 mcg (high dose) of RTX (volume was 25 ml; concentrations were 0.2, 1, and 2 mcg/ml). These doses are considered equivalent to administration of 20, 100, or 200 mcg in a human with a volume of 100 ml. A seventh cat received saline only and served as the control. The bladders of the anesthetized cats were emptied and then flushed with sterile saline via a foley urinary catheter. Once the saline was removed, the treatment with RTX (test cats) or saline alone (control cat) was administered over 60 seconds and left in the bladder for 20 minutes.
At day 14 the cats were anesthetized and perfused with saline followed by 10% formalin. After confirmation of successful euthanasia, lumbar and sacral segments of the spinal cord with corresponding dorsal spinal ganglia, the urinary bladder and urethra were harvested and tissues were prepared for immunohistochemistry.
Previous studies have shown that TRPV1-immunoreactive axons co-express Calcitonin gene-related peptide (CGRP) and substance P (SP) (See, e.g., Sharrad et al. (2015) Neurosci. Lett., 599: 164-171; Bae et al. (2004) J. Comp. Neurol. 478: 62-71). Since feline bladder connective tissue, smooth muscle, and cell bodies of S2 DRG express CGRP+ and SP+ axons, expression of CGRP and SP were used in these studies to identify the majority of TRPV1 axons innervating the cat bladder and TRPV1+ cell bodies in cat S2 dorsal root ganglia (DRG).

[3] = tested on: bladder cancer (TCC); experiment: Preliminary anti-cancer effect by bladder ultrasound in dogs with bladder cancer (Example D); assay type: in vivo, dog
Experimental: Dogs with bladder cancer were treated with RTX as follows. Under general anesthesia, RTX was infused directly into the bladder using a foley catheter. RTX remained in the bladder for 30 minutes before removal.
The primary endpoint was assessment of improvement of lower urinary tract signs with a 4-point lower urinary tract symptom scale (character of urination/degree of straining; frequency of urination (daytime); frequency of urination (nighttime); and blood in urine). The secondary endpoints were anti-cancer effect, as measured by bladder ultrasound, and quality of life.

[4] = 6.25 μg (0.25 μg/mL), Day 0, n 6
[5] = 6.25 μg (0.25 μg/mL), Day 28, n 6
[6] = 12.5 μg (0.5 μg/mL), Day 0, n 6
[7] = 12.5 μg (0.5 μg/mL), Day 28, n 5
[8] = 12.5 μg (1.25 μg/mL), Day 0, n 6
[9] = 12.5 μg (1.25 μg/mL), Day 28, n 6

SMILES: C=C(C)[C@]12C[C@@H](C)[C@@]34O[C@](Cc5ccccc5)(O[C@@H]1[C@@H]3C=C(COC(=O)Cc1ccc(O)c(OC)c1)C[C@]1(O)C(=O)C(C)=C[C@@H]41)O2 [RTX, resiniferatoxin]
- VSOM, Maximum [1, 4]: 12.0
- VSOM, Mean [1, 4]: 10.00
- VSOM, Median [1, 4]: 10.00
- VSOM, Minimum [1, 4]: 8.0
- VSOM, Maximum [1, 5]: 10.0
- VSOM, Mean [1, 5]: 6.00
- VSOM, Median [1, 5]: 6.50
- VSOM, Minimum [1, 5]: 1.0
- VSOM, Maximum [1, 6]: 12.0
- VSOM, Mean [1, 6]: 9.67
- VSOM, Median [1, 6]: 9.50
- VSOM, Minimum [1, 6]: 8.0
- VSOM, Maximum [1, 7]: 4.0
- VSOM, Mean [1, 7]: 1.60
- VSOM, Median [1, 7]: 1.00
- VSOM, Minimum [1, 7]: 0.0
- VSOM, Maximum [1, 8]: 10.0
- VSOM, Mean [1, 8]: 9.83
- VSOM, Median [1, 8]: 10.00
- VSOM, Minimum [1, 8]: 9.0
- VSOM, Maximum [1, 9]: 6.0
- VSOM, Mean [1, 9]: 3.83
- VSOM, Median [1, 9]: 4.00
- VSOM, Minimum [1, 9]: 2.0
- VSOM, Mean ([1]; 25 μg (1 μg/mL), Day 0, n 6): 10.00
- VSOM, Median ([1]; 25 μg (1 μg/mL), Day 0, n 6): 10.00
- VSOM, Minimum ([1]; 25 μg (1 μg/mL), Day 0, n 6): 9.0
- VSOM, Maximum ([1]; 25 μg (1 μg/mL), Day 28, n 5): 4.0
- VSOM, Mean ([1]; 25 μg (1 μg/mL), Day 28, n 5): 1.80
- VSOM, Median ([1]; 25 μg (1 μg/mL), Day 28, n 5): 1.00
- VSOM treatment failure, number of cats ([1]; Cohort 1 25 μg/25 mL): 0 n
- VSOM treatment failure, percent of cats ([1]; Cohort 1 25 μg/25 mL): 0.0%
- VSOM treatment failure, number of cats ([1]; Cohort 2 6.25 μg/25 mL): 3 n
- VSOM treatment failure, percent of cats ([1]; Cohort 2 6.25 μg/25 mL): 50.0%
- VSOM treatment failure, number of cats ([1]; Cohort 3 12.5 μg/25 mL): 0 n
- VSOM treatment failure, percent of cats ([1]; Cohort 3 12.5 μg/25 mL): 0.0%
- VSOM treatment failure, number of cats ([1]; Cohort 4 12.5 μg/10 mL): 2 n
- VSOM treatment failure, percent of cats ([1]; Cohort 4 12.5 μg/10 mL): 33.3%
- VSOM treatment failure, percent of cats ([1]; Overall (Cohorts 1-4)): (22.8%)
- density of CGRP and SP axons innervating cat bladder body ([2]; 5, 25 and 50 mcg single administration, 14 days post-treatment, vs saline): reduced
- density of CGRP or SP fibers in cat bladder ([2]; 5 mcg RTX in 25 ml saline): modest reduction
- density of CGRP and SP-immunoreactive axons innervating cat bladder body ([2]; 25 and 50 mcg, day 14, vs control saline): decreased
- ablation of afferent nerves ([2]; 25 mcg and 50 mcg in 25 ml saline): effective at ablating afferent nerves
- density of CGRP and SP fibers in body, trigon and fundus ([2]; 25 or 50 mcg in 25 ml saline, vs control): more significant reduction
- Best overall tumor response: change in largest tumor diameter ([3]; Case 03-01, 9.0 kg dog, 25 ug (2.8 ug/kg), Day 84): −30%
- Best Overall Response: tumor volume ([3]; Case 41-02, 38.8 kg dog, 50 ug (1.3 ug/kg) dosed twice 28 days apart, Day 28): −24%
